Measurements as given in ChEMBL document CHEMBL1132809, “Synthesis and evaluation of 4-deacetoxyagosterol A as an MDR-modulator” (2000).

Columns and labels:
[1] = tested on: KB 3-1; test: Cytotoxicity was evaluated against KB-3-1 cells at 10 ug/mL; assay type: functional; details: Homo sapiens
[2] = tested on: KB-C2; test: The compound was evaluated to Inhibit the growth of KB-C2 cells at 1 ug/mL n the presence of colchicine (0.1 ug/ML)
[3] = tested on: KB-C2; test: The compound was evaluated to Inhibit the growth of KB-C2 cells at 3 ug/mL n the presence of colchicine (0.1 ug/ML)
[4] = tested on: KB-C2; test: The compound was evaluated to Inhibit the growth of KB-C2 cells at 10 ug/mL in the presence of colchicine (0.1 ug/ML)
[5] = tested on: KB-CV60; test: The compound was evaluated to Inhibit the growth of KB CV-60 cells at 1 ug/mL in the presence of vincristine (0.1 ug/ML)
[6] = tested on: KB-CV60; test: The compound was evaluated to Inhibit the growth of KB CV-60 cells at 3 ug/mL in the presence of vincristine (0.1 ug/ML)
[7] = tested on: KB-CV60; test: The compound was evaluated to Inhibit the growth of KB CV-60 cells at 10 ug/mL in the presence of vincristine (0.1 ug/ML)
[8] = tested on: KB 3-1; test: Cytotoxicity was evaluated against KB CV-60 cells at 0.1 ug/mL; No cytotoxicity; assay type: functional, cell-based; details: Homo sapiens
[9] = tested on: KB 3-1; test: Cytotoxicity was evaluated against KB-C2 cells at 0.1 ug/mL; No cytotoxicity; assay type: functional, cell-based; details: Homo sapiens
[10] = tested on: KB 3-1; test: Cytotoxicity was evaluated against KB-3-1 cells at 3 ug/mL; assay type: functional; details: Homo sapiens

Structure (SMILES)	inhibition at 10 µg/mL [1] [%]	Inhibition [2] [%]	Inhibition [3] [%]	Inhibition [4] [%]	Inhibition [5] [%]	Inhibition [6] [%]	Inhibition [7] [%]	Cytotoxicity [8]	Cytotoxicity [9]	inhibition at 3 µg/mL [10] [%]
CC(=O)O[C@@H]1[C@@H]2[C@@H](OC(C)=O)C=C3[C@H]([C@H](O)C[C@]4(C)[C@@H]([C@H](C)[C@H](O)CCC(C)C)CC[C@@H]34)[C@@]2(C)CC[C@@H]1OC(C)=O [AGOSTEROL A]	13	75	82	84	66	73	76			
COc1cc2c(c(OC)c1OC)-c1ccc(OC)c(=O)cc1[C@@H](NC(C)=O)CC2								No cytotoxicity	No cytotoxicity	
CC(=O)O[C@H]1CC[C@@]2(C)[C@H](C1)[C@@H](OC(C)=O)C=C1[C@@H]2[C@H](O)C[C@]2(C)[C@@H]([C@H](C)[C@H](O)CCC(C)C)CC[C@@H]12	19	44	76	87	59	64	69			13
CC[C@]1(O)C[C@H]2CN(CCc3c([nH]c4ccccc34)[C@@](C(=O)OC)(c3cc4c(cc3OC)N(C=O)[C@H]3[C@@](O)(C(=O)OC)[C@H](OC(C)=O)[C@]5(CC)C=CCN6CC[C@]43[C@@H]65)C2)C1								No cytotoxicity	No cytotoxicity	
CC(=O)O[C@H]1CC[C@@]2(C)[C@H](C1)[C@@H](OC(C)=O)C=C1[C@@H]2[C@H](O)C[C@]2(C)[C@@H]([C@H](C)CCCC(C)C)CC[C@@H]12	39	37	69	88	15	25	42			5
